Key:
Piricularia oryzae = type: in vivo; conditions: concentration of active agent 0.1 (percentages); 5 days
Plasmopara viticola = test: Prophylactic leaf treatment of grapevines in the hothouse against Plasmopara viticola; type: in vivo
Protocol: Effects of prophylactic leaf treatment of grapevines in the hothouse against Plasmopara viticola
Young grapevine plants having from 5 to 8 leaves were sprayed dripping wet with the concentrations of active agents stated in the table below. After drying of the spray deposit the leaves were sprayed with an aqueous suspension of sporangia of the fungus (about 20,000 per ml); the spraying was applied to the bottom side of the leaves. The plants were then immediately incubated in a hothouse at a temperature of 22° to 24° C. and at maximum water saturation in the atmosphere. Beginning with the second day the humidity of the air was reduced for 3 to 4 days to normal level (30 to 70% saturation) and was then maintained for another day on the level of full saturation. Subsequently, the percentage portion of the fungus infested surface of each leaf was noted and the average per treatment was calculated in order to determine the fungicidal activity. This was done on the basis of the following formula: [formula]
The active compounds were applied in the form of a 20% concentration spray powder.

Pythium ultimum = test: Threshold concentration test for use of the compounds against Pythium ultimum (infested soil, garden peas); type: in vivo; parameters: key to root evaluation (1-4): 4: white roots without fungous necrosis; 3: white roots, minor fungous necrosis; 2: brown roots, already more pronounced fungous necrosis; 1: heavy fungous necrosis, roots rotted; conditions: for root evaluation (1-4): 3 weeks; for number of sound peas: 20 grains per dish, 3 weeks at 20-24° C.
Protocol: Threshold concentration test for use of the compounds against Pythium ultimum
A 20% concentration of certain pulverulent active agents as listed below were mixed in uniform manner into a soil which had been heavily infested by Pythium ultimum. The thus treated soil was then placed into clay dishes of a capacity of 0.5 l earth. Without any intermediate time lapse 20 grain of garden peas (Pisum sativum L. convar. medullare Alef.) of the type "Wunder von Kelvedon" were then seeded into each of the clay dishes. After a cultivation period of three weeks at 20° to 24° C. in a hothouse the number of sound peas was determined and a root evaluation was carried out. The active agents amounts and results appear from the following table.
(§1) The root evaluation was carried out on a scale from 1 to 4 as follows: […]

Tilletia caries = test: Treatment of oat seeds infested with Tilletia caries (spore germination); type: in vivo
Helminthosporium gram = conditions: 50 g active agent per 100 kg; about 5 weeks
Protocol: Treatment of barley seeds infested with Helminthosporium gram
After emergence, the plants were subjected to illumination for 12 hours per day. After about 5 weeks the infested plants were counted and the total number of plants for each test were also counted. The active agents tested were used as pulverulent compositions.

Fusarium avenaceum = test: Threshold concentration test in case of Fusarium avenaceum (infested soil, garden peas); type: in vivo; conditions: for number of sound peas: 20 grains per dish, 18 days at 20-24° C.; for root evaluation (1-4): 18 days
Protocol: Threshold concentration test in case of Fusarium avenaceum
A 20% pulverulent active agent of the type further identified in the table below was mixed in uniform manner with a soil which had been heavily infested with Fusarium avenaceum. The thus treated soil was then placed into clay dishes of a capacity of 0.5 l of earth. Each dish was seeded without any intervening time with 20 grains of garden peas (Pisum sativum L. convar. medullare Alef.) of the type "Wunder von Kelvedon". After a cultivation time of 18 days at 20° to 24° C. in a hot house the number of sound peas was determined and a root evaluation was carried out. The active agents employed, the amounts and results appear from the following table.
as §1

[1] = concentration of active agent 0.005 (unit not given)
[2] = concentration of active agent 0.025 (unit not given)

Compound | % activity (Piricularia oryzae) [%] | % activity (Plasmopara viticola; concentration of active agent 0.001 (unit not given)) [%] | % activity (Plasmopara viticola; [1]) [%] | % activity (Plasmopara viticola; [2]) [%] | root evaluation (1-4) (Pythium ultimum; 20 mg/l soil) | number of sound peas (Pythium ultimum; 20 mg/l soil) | root evaluation (1-4) (Pythium ultimum; 40 mg/l soil) | number of sound peas (Pythium ultimum; 40 mg/l soil) | root evaluation (1-4) (Pythium ultimum; 80 mg/l soil) | number of sound peas (Pythium ultimum; 80 mg/l soil) | % activity (Tilletia caries; 20 g active agent per 100 kg) [%] | % activity (Tilletia caries; 50 g active agent per 100 kg) [%] | % activity (Helminthosporium gram) [%] | number of sound peas (Fusarium avenaceum; 25 mg/l soil) | root evaluation (1-4) (Fusarium avenaceum; 25 mg/l soil) | number of sound peas (Fusarium avenaceum; 50 mg/l soil) | root evaluation (1-4) (Fusarium avenaceum; 50 mg/l soil) | number of sound peas (Fusarium avenaceum; 100 mg/l soil) | root evaluation (1-4) (Fusarium avenaceum; 100 mg/l soil) | % activity (Tilletia caries; 10 g active agent per 100 kg) [%]
CCCC[S+]([O-])c1nnc(C(N)=O)s1 (stereo not shown) [5-butylsulfinyl-1,3,4-thiadiazole-2-carboxamide] | 93 | 75 | 99.8 | 100 | 1 | 10 | 4 | 15 | 4 | 19 | 95 | 100 |  |  |  |  |  |  |  | 
CC(C)S(=O)(=O)c1nnc(C(=O)NCC2CCCCC2)s1 [5-isopropylsulfonyl-1,3,4-thiadiazole-2-carboxylic acid-cyclohexylmethylamide] | 98 |  | 92 | 97 |  |  |  |  |  |  | 92 | 97 |  |  |  |  |  |  |  | 
C=CCNC(=O)c1nnc(S(C)(=O)=O)s1 [5-methylsulfonyl-1,3,4-thiadiazole-2-carboxylic acid-allylamide] | 94 |  |  |  | 4 | 19 | 4 | 18 | 4 | 18 | 100 | 100 | 100 |  |  |  |  |  |  | 
CCC[S+]([O-])c1nnc(C(=O)NCC)s1 (stereo not shown) [5-propylsulfinyl-1,3,4-thiadiazole-2-carboxylic acid-ethylamide] | 90 |  |  |  |  |  |  |  |  |  |  |  | 94 |  |  |  |  |  |  | 
CCCNC(=O)c1nnc([S+]([O-])CCC)s1 (stereo not shown) [5-propylsulfinyl-1,3,4-thiadiazole-2-carboxylic acid-propylamide] | 93 |  |  |  |  |  |  |  |  |  | 99.3 | 100 | 94 |  |  |  |  |  |  | 
CCCS(=O)(=O)c1nnc(C#N)s1 [5-propylsulfonyl-1,3,4-thiadiazole-2-carbonitrile] | 99.5 |  |  |  |  |  |  |  |  |  | 100 | 100 |  | 18 | 4 | 20 | 4 | 20 | 4 | 99
C=CCNC(=O)c1nnc(S(=O)(=O)CCC)s1 [5-propylsulfonyl-1,3,4-thiadiazole-2-carboxylic acid-allylamide] | 93 |  |  |  | 3 | 13 | 4 | 15 | 4 | 15 | 99.7 | 100 |  |  |  |  |  |  |  | 99.3
CCCS(=O)(=O)c1nnc(C(=O)NC(C)C)s1 [5-propylsulfonyl-1,3,4-thiadiazole-2-carboxylic acid-isopropylamide] | 90 |  |  |  | 1 | 9 | 4 | 20 | 4 | 18 | 99.8 | 100 |  | 14 | 2 | 16 | 3 | 17 | 4 | 98
CCC(C)S(=O)(=O)c1nnc(C#N)s1 (stereo not shown) [5-sec.-butylsulfonyl-1,3,4-thiadiazole-2-carbonitrile] | 99.5 |  |  |  |  |  |  |  |  |  | 91 | 98 |  | 20 | 4 | 19 | 4 | 20 | 4 | 75

Source: patent US4281121A, “1,3,4-Thiadiazole-2-carboxylic acid derivatives, process for making the same and fungicidal and nematocidal compositions containing same” (Schering Aktiengesellschaft, priority 1978, dated 1981)
